{"source": "patent US20260256792A1", "about": "“TREATMENT OF CHRONIC SPONTANEOUS URTICARIA BY ADMINISTERING (R)-2-[3-[4-AMINO-3-(2-FLUORO-4-PHENOXY-PHENYL)PYRAZOLO[3,4-D]PYRIMIDIN-1-YL]PIPERIDINE-1-CARBONYL]-4-METHYL-4-[4-(OXETAN-3-YL)PIPERAZIN-1-YL]PENT-2-ENENITRILE” (priority 2023, published 2026)", "system": "angioedema in CSU patients", "test": "Phase 2 CSU study: angioedema activity score over 7 days (AAS7)", "type": "in vivo, human", "settings": "400 mg BID; for AAS7 = 0, RRD (%) for rilzabrutinib vs. placebo (95% CI) / AAS7 Post-baseline Mean (SD) / Participants with AAS7 = 0, Responder n (%) / AAS7 % Change difference for rilzabrutinib vs. placebo LS Mean (95% CI) / AAS7 Change difference for rilzabrutinib vs. placebo LS Mean (95% CI) / AAS7 Change from baseline LS Mean (SE) / AAS7 % Change from baseline LS Mean (SE) / AAS7 = 0, Non-responder n (%) / AAS7 = 0, OR (95% CI) for rilzabrutinib vs. placebo: angioedema at baseline; for Non-responder n (%), AAS7 = 0 / OR (95% CI) for rilzabrutinib vs. placebo, AAS7 = 0 / RRD (%) for rilzabrutinib vs. placebo (95% CI), AAS7 = 0 / Responder n (%), AAS7 = 0: outlier removed", "source_text": "The study comprises a 12 week, randomized, double-blind, placebo-controlled, multi-center, dose-ranging efficacy and safety phase, followed by a 40 week open label extension (OLE) phase (see FIG. 1). The study consists of three phases and an optional OLE phase. […] The weekly angioedema activity score (AAS7) was proposed as a tertiary endpoint. […] Patients were to complete the AAS using the e-diary. The e-diary was to be used once daily on the same time of each day recording of participant's answers to the angioedema activity score over 7 days (AAS7) questionnaire."}
{"smiles": "CC(C)(C=C(C#N)C(=O)N1CCC[C@@H](n2nc(-c3ccc(Oc4ccccc4)cc3F)c3c(N)ncnc32)C1)N1CCN(C2COC2)CC1", "note": "[rilzabrutinib, (R)-2-[3-[4-amino-3-(2-fluoro-4-phenoxy-phenyl)pyrazolo[3,4-d]pyrimidin-1-yl]piperidine-1-carbonyl]-4-methyl-4-[4-(oxetan-3-yl)piperazin-1-yl]pent-2-enenitrile]", "values": [{"measurement": "AAS7 = 0, RRD (%) for rilzabrutinib vs. placebo (95% CI)", "setting": "Week 8, omalizumab-naïve", "result": 26.4, "unit": "%"}, {"measurement": "AAS7 Post-baseline Mean (SD)", "setting": "Week 8, omalizumab-naïve", "result": "9.97 (16.69)"}, {"measurement": "Participants with AAS7 = 0, Responder n (%)", "setting": "Week 8, omalizumab-naïve", "result": "13 (50.0) n (%)"}, {"measurement": "AAS7 % Change difference for rilzabrutinib vs. placebo LS Mean (95% CI)", "setting": "Week 9, ITT", "result": "−26.88 (−56.35, 2.58) %"}, {"measurement": "AAS7 Change difference for rilzabrutinib vs. placebo LS Mean (95% CI)", "setting": "Week 9, ITT", "result": "−11.25 (−21.79, −0.72)"}, {"measurement": "AAS7 Change from baseline LS Mean (SE)", "setting": "Week 9, ITT", "result": "−40.70 (4.08)"}, {"measurement": "AAS7 Post-baseline Mean (SD)", "setting": "Week 9, ITT", "result": "10.00 (17.78)"}, {"measurement": "Non-responder n (%), AAS7 = 0", "setting": "Week 9, omalizumab-naïve", "result": "18 (51.4) n (%)"}, {"measurement": "OR (95% CI) for rilzabrutinib vs. placebo, AAS7 = 0", "setting": "Week 9, omalizumab-naïve", "result": 0.919}, {"measurement": "RRD (%) for rilzabrutinib vs. placebo (95% CI), AAS7 = 0", "setting": "Week 9, omalizumab-naïve", "result": "−2.1", "unit": "%"}, {"measurement": "Responder n (%), AAS7 = 0", "setting": "Week 9, omalizumab-naïve", "result": "17 (48.6) n (%)"}, {"measurement": "AAS7 % Change from baseline LS Mean (SE)", "setting": "Week 9, omalizumab-naïve", "result": "−74.80 (12.27) %"}, {"measurement": "AAS7 = 0, Non-responder n (%)", "setting": "Week 9, omalizumab-naïve", "result": "14 (53.8) n (%)"}, {"measurement": "AAS7 = 0, OR (95% CI) for rilzabrutinib vs. placebo", "setting": "Week 9, omalizumab-naïve", "result": 1.787}, {"measurement": "AAS7 = 0, RRD (%) for rilzabrutinib vs. placebo (95% CI)", "setting": "Week 9, omalizumab-naïve", "result": 14.5, "unit": "%"}, {"measurement": "AAS7 Post-baseline Mean (SD)", "setting": "Week 9, omalizumab-naïve", "result": "10.87 (18.30)"}, {"measurement": "Participants with AAS7 = 0, Responder n (%)", "setting": "Week 9, omalizumab-naïve", "result": "12 (46.2) n (%)"}, {"measurement": "AAS7 % Change difference for rilzabrutinib vs. placebo LS Mean (95% CI)", "setting": "Week 10, ITT", "result": "−15.09 (−55.38, 25.21) %"}, {"measurement": "AAS7 % Change from baseline LS Mean (SE)", "setting": "Week 10, ITT", "result": "−64.07 (15.65) %"}, {"measurement": "AAS7 Change difference for rilzabrutinib vs. placebo LS Mean (95% CI)", "setting": "Week 10, ITT", "result": "−8.79 (−20.40, 2.82)"}, {"measurement": "AAS7 Change from baseline LS Mean (SE)", "setting": "Week 10, ITT", "result": "−39.12 (4.47)"}, {"measurement": "AAS7 Post-baseline Mean (SD)", "setting": "Week 10, ITT", "result": "12.72 (19.89)"}, {"measurement": "Non-responder n (%), AAS7 = 0", "setting": "Week 10, omalizumab-naïve", "result": "19 (54.3) n (%)"}, {"measurement": "OR (95% CI) for rilzabrutinib vs. placebo, AAS7 = 0", "setting": "Week 10, omalizumab-naïve", "result": 0.945}, {"measurement": "RRD (%) for rilzabrutinib vs. placebo (95% CI), AAS7 = 0", "setting": "Week 10, omalizumab-naïve", "result": "−1.4", "unit": "%"}, {"measurement": "Responder n (%), AAS7 = 0", "setting": "Week 10, omalizumab-naïve", "result": "16 (45.7) n (%)"}, {"measurement": "AAS7 % Change from baseline LS Mean (SE)", "setting": "Week 10, omalizumab-naïve", "result": "−60.11 (16.65) %"}, {"measurement": "AAS7 = 0, Non-responder n (%)", "setting": "Week 10, omalizumab-naïve", "result": "15 (57.7) n (%)"}, {"measurement": "AAS7 = 0, OR (95% CI) for rilzabrutinib vs. placebo", "setting": "Week 10, omalizumab-naïve", "result": 1.734}, {"measurement": "AAS7 = 0, RRD (%) for rilzabrutinib vs. placebo (95% CI)", "setting": "Week 10, omalizumab-naïve", "result": 13.1, "unit": "%"}, {"measurement": "AAS7 Post-baseline Mean (SD)", "setting": "Week 10, omalizumab-naïve", "result": "13.93 (20.43)"}, {"measurement": "Participants with AAS7 = 0, Responder n (%)", "setting": "Week 10, omalizumab-naïve", "result": "11 (42.3) n (%)"}, {"measurement": "AAS7 % Change difference for rilzabrutinib vs. placebo LS Mean (95% CI)", "setting": "Week 11, ITT", "result": "−23.43 (−51.36, 4.50) %"}, {"measurement": "AAS7 % Change from baseline LS Mean (SE)", "setting": "Week 11, ITT", "result": "−84.81 (10.85) %"}, {"measurement": "AAS7 Change difference for rilzabrutinib vs. placebo LS Mean (95% CI)", "setting": "Week 11, ITT", "result": "−8.17 (−19.55, 3.20)"}, {"measurement": "AAS7 Change from baseline LS Mean (SE)", "setting": "Week 11, ITT", "result": "−42.03 (4.41)"}, {"measurement": "AAS7 Post-baseline Mean (SD)", "setting": "Week 11, ITT", "result": "10.31 (18.47)"}, {"measurement": "Non-responder n (%), AAS7 = 0", "setting": "Week 11, omalizumab-naïve", "result": "14 (40.0) n (%)"}, {"measurement": "OR (95% CI) for rilzabrutinib vs. placebo, AAS7 = 0", "setting": "Week 11, omalizumab-naïve", "result": 1.516}, {"measurement": "RRD (%) for rilzabrutinib vs. placebo (95% CI), AAS7 = 0", "setting": "Week 11, omalizumab-naïve", "result": 10.4, "unit": "%"}, {"measurement": "Responder n (%), AAS7 = 0", "setting": "Week 11, omalizumab-naïve", "result": "21 (60.0) n (%)"}, {"measurement": "AAS7 = 0, Non-responder n (%)", "setting": "Week 11, omalizumab-naïve", "result": "13 (50.0) n (%)"}, {"measurement": "AAS7 = 0, OR (95% CI) for rilzabrutinib vs. placebo", "setting": "Week 11, omalizumab-naïve", "result": 2.010}, {"measurement": "AAS7 = 0, RRD (%) for rilzabrutinib vs. placebo (95% CI)", "setting": "Week 11, omalizumab-naïve", "result": 17.8, "unit": "%"}, {"measurement": "AAS7 Post-baseline Mean (SD)", "setting": "Week 11, omalizumab-naïve", "result": "11.30 (19.07)"}, {"measurement": "Participants with AAS7 = 0, Responder n (%)", "setting": "Week 11, omalizumab-naïve", "result": "13 (50.0) n (%)"}, {"measurement": "AAS7 % Change from baseline LS Mean (SE)", "setting": "Week 12, ITT", "result": "−87.51 (10.12) %"}, {"measurement": "AAS7 Change difference for rilzabrutinib vs. placebo LS Mean (95% CI)", "setting": "Week 12, ITT", "result": "−7.07 (−17.69, 3.54)"}, {"measurement": "AAS7 Change from baseline LS Mean (SE)", "setting": "Week 12, ITT", "result": "−42.38 (4.13)"}, {"measurement": "AAS7 Post-baseline Mean (SD)", "setting": "Week 12, ITT", "result": "10.67 (17.53)"}, {"measurement": "patients with angioedema score (AAS7) of 0", "setting": "Week 12, omalizumab-naïve", "result": 42.3, "unit": "%"}, {"measurement": "Non-responder n (%), AAS7 = 0", "setting": "Week 12, omalizumab-naïve", "result": "18 (51.4) n (%)"}, {"measurement": "OR (95% CI) for rilzabrutinib vs. placebo, AAS7 = 0", "setting": "Week 12, omalizumab-naïve", "result": 0.925}, {"measurement": "RRD (%) for rilzabrutinib vs. placebo (95% CI), AAS7 = 0", "setting": "Week 12, omalizumab-naïve", "result": "−1.9", "unit": "%"}, {"measurement": "Responder n (%), AAS7 = 0", "setting": "Week 12, omalizumab-naïve", "result": "17 (48.6) n (%)"}, {"measurement": "AAS7 = 0, Non-responder n (%)", "setting": "Week 12, omalizumab-naïve", "result": "15 (57.7) n (%)"}, {"measurement": "AAS7 = 0, OR (95% CI) for rilzabrutinib vs. placebo", "setting": "Week 12, omalizumab-naïve", "result": 1.627}, {"measurement": "AAS7 = 0, RRD (%) for rilzabrutinib vs. placebo (95% CI)", "setting": "Week 12, omalizumab-naïve", "result": 11.3, "unit": "%"}, {"measurement": "AAS7 Change difference for rilzabrutinib vs. placebo LS Mean (95% CI)", "setting": "Week 12, omalizumab-naïve", "result": "−8.14 (−19.74, 3.45)"}]}
